Reference: patent US20090004118A1, “Multifunctional Nanoparticle Conjugates And Their Use” (priority 2004, published 2009)

Legend:
[1] = system: MCF-10A cells (normal breast cells); assay: MTT cytotoxicity assay, MCF-10A cells; assay type: cell-based, Human; conditions: compared to cells treated with Paclitaxel-Heparin-FA
tubulin = assay: Tubulin polymerization assay; conditions: 10 μM paclitaxel equivalent, absorbance 340 nm, FIG. 3
tumor cell cultures = conditions: cited from earlier work
factor Xa = assay: Factor Xa chromogenic assay (anti Factor Xa heparin activity); assay type: biochemical; conditions: FIG. 2

Compound	IC50 values for inhibition of growth of tumor cell cultures (tumor cell cultures)	further results
Nc1nc2ncc(CNc3ccc(C(=O)N[C@@H](CCC(=O)O)C(=O)O)cc3)nc2c(=O)[nH]1 [free folate, folic acid]	–	viability of normal cells [1]: relatively low
CC(=O)O[C@H]1C(=O)[C@@]2(C)[C@H]([C@H](OC(=O)c3ccccc3)[C@]3(O)C[C@H](OC(=O)[C@H](O)[C@@H](NC(=O)c4ccccc4)c4ccccc4)C(C)=C1C3(C)C)[C@]1(OC(C)=O)CO[C@@H]1C[C@@H]2O [paclitaxel]	–	ability to induce microtubule assembly (tubulin polymerization) (tubulin): clear increase in absorbance
calicheamicin	low picomolar range	–
dynemicin	low picomolar range	–
esperamicin	low picomolar range	–
heparin	–	bioactivity measured by factor Xa chromogenic assay (factor Xa): 179 IU/mg
